Data on 14 molecules can be found in patent publication US20110081315A1, “NOVEL MACROCYCLIC INHIBITORS OF HEPATITIS C VIRUS REPLICATION” (INTERMUNE, INC., priority 2009, published 2011).

In one assay the test system is hepatitis C replicon. Kind of assay: hepatitis C replicon EC50 assay. It counts as cell-based. The conditions noted are these: Hepatitis C virus; hepatitis C replicon; read-out: EC50. Summed up: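 NS3/NS4 protease complexes were formed and compound inhibitory concentrations (IC50) measured at ambient temperature (23° C.) in 50 mM Tris-HCl, pH 7.5, with 15% glycerol, 0.6 mM LDAO, 25 μM NS4A peptide and 10 mM DTT. Replicon EC50 values come from a standard HCV replicon cell assay.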
A general note: Replicon systems follow genome replication, usually without infectious particles.

The next assay concerns the target NS3/NS4 complexes (Hepatitis C virus genotype 1a, UniProt P27958). The assay can be described thus: NS3/NS4 inhibition assay (IC50). The conditions noted are these: NS3/NS4 activity; 23° C., 25 μM NS4A peptide. It counts as biochemical. In short, it runs like this: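 Read-outs are IC50 for inhibition of the NS3/NS4 complex and EC50 in an HCV replicon system. Biochemical runs use 23° C. and a 50 mM Tris-HCl (pH 7.5) buffer with 15% glycerol, 10 mM DTT, 0.6 mM LDAO and 25 μM NS4A peptide.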

Each structure is given as a SMILES string.

Usually EC50 stands for the midpoint of the concentration-response curve. The term IC50 denotes the concentration needed to halve the response being measured. A high value points to a need for much substance.

NS3/NS4 complexes, sequence (P27958 1027-1657, one chain of several): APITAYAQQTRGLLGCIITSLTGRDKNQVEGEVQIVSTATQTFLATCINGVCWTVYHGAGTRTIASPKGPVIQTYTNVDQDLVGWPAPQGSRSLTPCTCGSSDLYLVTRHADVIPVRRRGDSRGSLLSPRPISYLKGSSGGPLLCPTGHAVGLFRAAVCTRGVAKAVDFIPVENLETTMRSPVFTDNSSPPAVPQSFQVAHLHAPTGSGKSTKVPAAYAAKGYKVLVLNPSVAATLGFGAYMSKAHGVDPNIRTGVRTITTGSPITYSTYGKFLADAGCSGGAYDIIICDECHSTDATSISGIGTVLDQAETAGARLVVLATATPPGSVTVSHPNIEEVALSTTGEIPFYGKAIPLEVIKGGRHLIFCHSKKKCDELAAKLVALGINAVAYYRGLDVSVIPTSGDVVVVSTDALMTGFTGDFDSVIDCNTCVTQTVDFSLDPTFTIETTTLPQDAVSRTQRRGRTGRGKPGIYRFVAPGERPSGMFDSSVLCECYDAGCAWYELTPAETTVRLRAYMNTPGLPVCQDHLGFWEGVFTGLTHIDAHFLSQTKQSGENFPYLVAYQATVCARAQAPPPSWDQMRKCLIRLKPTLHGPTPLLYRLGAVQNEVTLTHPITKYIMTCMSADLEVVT

On to `Cc1cc(F)cc(-c2cccc3c2nc(O[C@@H]2C[C@H]4C(=O)N[C@]5(C(=O)NS(=O)(=O)C6(C)CC6)C[C@H]5/C=C\CCCCC[C@H](Nc5ccccc5)C(=O)N4C2)n3C(C)C)c1` [Compound 245], for which the EC50 with hepatitis C replicon is > 100 nM. In addition, the IC50 at NS3/NS4 complexes is < 10 nM.
Taken in the same sequence, the figures for `CC(C)n1c(O[C@@H]2C[C@H]3C(=O)N[C@]4(C(=O)NS(=O)(=O)C5(C)CC5)C[C@H]4/C=C\CCCCC[C@H](Nc4ccccc4)C(=O)N3C2)nc2c(-c3ccc(F)c(C(F)(F)F)c3)cccc21` [Compound 246] were > 100 nM and < 10 nM.
As to `CC(C)n1c(O[C@@H]2C[C@H]3C(=O)N[C@]4(C(=O)NS(=O)(=O)C5(C)CC5)C[C@H]4/C=C\CCCCC[C@H](Nc4ccccc4)C(=O)N3C2)nc2c(-c3cccc(OC(F)(F)F)c3)cccc21` [Compound 247], the EC50 in the assay on hepatitis C replicon is > 100 nM. Besides, the IC50 at NS3/NS4 complexes is < 10 nM.
In the case of `CC(C)n1c(O[C@@H]2C[C@H]3C(=O)N[C@]4(C(=O)NS(=O)(=O)C5(C)CC5)C[C@H]4/C=C\CCCCC[C@H](Nc4ccccc4)C(=O)N3C2)nc2c(-c3cccc(C(=O)N(C)C)c3)cccc21` [Compound 248], the EC50 in the assay with hepatitis C replicon lay within 10 to 100 nM. At NS3/NS4 complexes, the IC50 was < 10 nM.
Regarding `CC(C)n1c(O[C@@H]2C[C@H]3C(=O)N[C@]4(C(=O)NS(=O)(=O)C5(C)CC5)C[C@H]4/C=C\CCCCC[C@H](Nc4ccccc4)C(=O)N3C2)nc2c(-c3ccc(OC(F)(F)F)cc3)cccc21` [Compound 249], the EC50 in the assay with hepatitis C replicon is > 100 nM. Further, the IC50 against NS3/NS4 complexes was < 10 nM.
Taken in the same sequence, the figures for `Cc1ccccc1-c1cccc2c1nc(O[C@@H]1C[C@H]3C(=O)N[C@]4(C(=O)NS(=O)(=O)C5(C)CC5)C[C@H]4/C=C\CCCCC[C@H](Nc4ccccc4)C(=O)N3C1)n2C(C)C` [Compound 250] were > 100 nM and < 10 nM.
On the same counts, the results for `CC(C)n1c(O[C@@H]2C[C@H]3C(=O)N[C@]4(C(=O)NS(=O)(=O)C5(C)CC5)C[C@H]4/C=C\CCCCC[C@H](Nc4ccccc4)C(=O)N3C2)nc2c(-c3cccc(C(F)(F)F)c3)cccc21` [Compound 251] are > 100 nM and < 10 nM.
On the same counts, the results for `CC(C)n1c(O[C@@H]2C[C@H]3C(=O)N[C@]4(C(=O)NS(=O)(=O)C5(C)CC5)C[C@H]4/C=C\CCCCC[C@H](Nc4ccccc4)C(=O)N3C2)nc2c(-c3ccoc3)cccc21` [Compound 252] are 10 to 100 nM and < 10 nM.
Take `CC(C)n1c(O[C@@H]2C[C@H]3C(=O)N[C@]4(C(=O)NS(=O)(=O)N(C)C)C[C@H]4/C=C\CCCCC[C@H](NC(=O)OC(C)(C)C)C(=O)N3C2)nc2c(-c3ccccc3F)cccc21` [Compound 261]: in the assay on hepatitis C replicon, the EC50 lay in the range of 10 to 100 nM. Besides, the IC50 against NS3/NS4 complexes was < 10 nM.
On the same counts, the results for `CC(C)n1c(O[C@@H]2C[C@H]3C(=O)N[C@]4(C(=O)NS(=O)(=O)N(C)C)C[C@H]4/C=C\CCCCC[C@H](NC(=O)OC(C)(C)C)C(=O)N3C2)nc2cc(-c3ccccc3)ccc21` [Compound 262] are 10 to 100 nM and < 10 nM.
Taken in the same sequence, the figures for `CC(C)n1c(O[C@@H]2C[C@H]3C(=O)N[C@]4(C(=O)NS(=O)(=O)C5(C)CC5)C[C@H]4/C=C\CCCCC[C@H](Nc4ccccc4)C(=O)N3C2)nc2c(Cl)cccc21` [Compound 263] were 10 to 100 nM and < 10 nM.
On the same counts, the results for `CC(C)n1c(O[C@@H]2C[C@H]3C(=O)N[C@]4(C(=O)NS(=O)(=O)N(C)C)C[C@H]4/C=C\CCCCC[C@H](NC(=O)OC(C)(C)C)C(=O)N3C2)nc2c(Cl)cccc21` [Compound 264] are < 10 nM and < 10 nM.
With `CCc1cccc2c1nc(O[C@@H]1C[C@H]3C(=O)N[C@]4(C(=O)NS(=O)(=O)C5(C)CC5)C[C@H]4/C=C\CCCCC[C@H](Nc4ccccc4)C(=O)N3C1)n2C(C)C` [Compound 265], the EC50 in the assay on hepatitis C replicon was in the range of 10 to 100 nM. In addition, at NS3/NS4 complexes, the half-maximal inhibitory concentration (IC50) is < 10 nM.
Taken in the same sequence, the figures for `CCc1cccc2c1nc(O[C@@H]1C[C@H]3C(=O)N[C@]4(C(=O)NS(=O)(=O)N(C)C)C[C@H]4/C=C\CCCCC[C@H](NC(=O)OC(C)(C)C)C(=O)N3C1)n2C(C)C` [Compound 266] were < 10 nM and < 10 nM.
